From patent US20040014030A1, “Enzymatic assay of HIV protease inhibitors” (priority 2002, published 2004) come the findings set out here.

Where a SMILES comes first, the peptide text is derived from it.

The target of this test is T1, HIV-1 protease (Human immunodeficiency virus type 1 group M subtype B, UniProt P04585).
T1 construct: the enzyme HIV-1 protease; purchased BACHEM AMERICAS (King of Prussia, Pa.)
The experiment in a line: Kinetic parameter determination: hydrolysis of chromogenic substrate by HIV-1 PR monitored at 300 nm. To be noted: substrate hydrolysis by HIV-1 PR, 25° C., pH 4.9 assay buffer. The class given is biochemical. On the procedure:
The synthetic chromogenic substrate, H-His-Lys-Ala-Arg-Val-Leu*Nph-Glu-Ala-Nle-Ser-NH2 (SEQ ID NO:3) and the enzyme HIV-1 protease (0.65 milligrams per milliliter (mg/mL), 16 International Units per milligram (IU/mg)) were purchased from BACHEM AMERICAS (King of Prussia, Pa.).
A stock solution containing 1 mg/mL of the chromogenic substrate in HIV PR assay buffer (50 millimolar (mM) sodium acetate, pH 4.9, 200 mM NaCl, 5 mM diothiothreitol (DTT), 10% (v/v) glycerol) was prepared by dissolving 5 mg chromogenic substrate in 5 mL of assay buffer. A substrate solution at a concentration of 101 micromolar (μM) was prepared in HIV-PR assay buffer from the substrate stock in a sample cup of Roche COBAS FARA. The stock mixture of HIV-1 PR as received was then diluted by 20-fold into this mixture. The hydrolysis of substrate by HIV-1 PR was monitored at 300 nm at 25° C. on a ROCHE DIAGNOSTICS COBAS FARA instrument.
A stock solution containing the chromogenic substrate at a concentration of 3 mg/mL was prepared by dissolving 5 mg chromogenic substrate in 1.67 mL of the assay buffer as described in Example 1. A series of substrate solutions were prepared in the HIV-PR assay buffer over the concentration range of 0-2282 μM. The stock solution of HIV-1 PR was then diluted by 20-fold into HIV PR assay buffer. The hydrolysis of substrate by HIV-1 PR was monitored at 300 nm at 25° C. on a ROCHE DIAGNOSTICS COBAS FARA instrument, as described in Example 1.

Broadly, the Km is the concentration of substrate that gives half-maximal velocity. Turning to `CCCC[C@H](NC(=O)[C@H](C)NC(=O)[C@H](CCC(=O)O)NC(=O)[C@H](Cc1ccc([N+](=O)[O-])cc1)NC(=O)[C@H](CC(C)C)NC(=O)[C@@H](NC(=O)[C@H](CCCNC(=N)N)NC(=O)[C@H](C)NC(=O)[C@H](CCCCN)NC(=O)[C@@H](N)Cc1c[nH]cn1)C(C)C)C(=O)N[C@@H](CO)C(N)=O` [chromogenic substrate, H-His-Lys-Ala-Arg-Val-Leu*Nph-Glu-Ala-Nle-Ser-NH2] (HELM PEPTIDE1{H.K.A.R.V.L.[O=C([C@H](Cc1ccc([N+](=O)[O-])cc1)N[*:1])[*:2]].E.A.[Nle].S.[am]}$$$$V2.0), the “apparent Vmax” value is 156.81 µmol/mg/min and the apparent kcat is 58.02 s⁻¹. The Km (substrate 0-2282 μM, read-out: apparent Km) is 67 ± 7.55 µM.
